{"source": "patent US5776925A", "about": "“Methods for cancer chemosensitization” (Pharmacyclics, Inc., priority 1996, dated 1998)", "key": {"EMT6 tumors [1]": {"test_system": "EMT6 tumors"}, "EMT6 tumors [2]": {"test_system": "EMT6 tumors", "experiment": "in vivo chemosensitization of cyclophosphamide, subcutaneous EMT6 tumors in Balb/c mice", "design": "species or system murine (Balb/c mice)", "settings": "cyclophosphamide 40 mg/kg followed by GdT2BET 40 μmol/kg 5 min, or 5 min and 5 hr later; once a week for three weeks", "experimental": "In vivo studies were carried out using Balb/c mice with EMT6 tumors implanted subcutaneously as described in Example 2. 4-Hydroxy cyclophosphamide was dissolved at a concentration of 5 mg/mL in 0.9% NaCl. GdT2BET was dissolved at a concentration of 2 mM in 5% mannitol. EMT6 tumors were implanted subcutaneously in the right flanks of Balb/c mice; 9 mice were in each group. Group #1 received cyclophosphamide (CY) at 40 mg/kg; group #2 received cyclophosphamide (CY) at 40 mg/kg followed by GdT2BET at 40 μmol/kg 5 min later; and group #3 received cyclophosphamide (CY) at 40 mg/kg followed by GdT2BET at 40 μmol/kg 5 min and 5 hr later. This protocol was repeated once a week for three weeks."}, "MES-SA cells [3]": {"test_system": "MES-SA cells"}, "MES-SA/Dx5 cells": {"test_system": "MES-SA/Dx5 cells", "experiment": "chemosensitization effect in doxorubicin-selected mdr1 variant", "type": "cell-based, human"}, "MES-SA cells [4]": {"test_system": "MES-SA cells", "type": "cell-based, human"}, "[5]": {"test_system": "MDR gene in bone marrow cells", "settings": "MDR1-transgenic mouse, simultaneous administration (Mickisch, 1991); cited from earlier work"}, "[6]": {"settings": "in vivo; cited from earlier work"}}, "data": [{"compound": "CC(=O)[O-].CC(=O)[O-].CCc1c(CC)c2cc3nc(cnc4cc(OCCOCCOCCOC)c(OCCOCCOCCOC)cc4ncc4nc(cc1[n-]2)C(CCCO)=C4C)C(C)=C3CCCO.O.[Gd+3]", "note": "[GdT2BET]", "values": [{"measurement": "cures (no evidence of disease at end of study)", "setting": "EMT6 tumors [1]; ADR+2GdT2BET group (GdT2BET 5 min and 5 hr post ADR), first study", "result": "Two"}, {"measurement": "cures, further study", "setting": "EMT6 tumors [1]; ADR+2GdT2BET group, further study", "result": "two"}, {"measurement": "adriamycin cytotoxicity (tumor)", "setting": "EMT6 tumors [1]; adriamycin 7.5 mg/kg iv followed by GdT2BET 40 μmol/kg iv, once a week for three weeks", "result": "clear enhancement of adriamycin cytotoxicity"}, {"measurement": "p, ADR+2GdT2BET versus ADR only", "setting": "EMT6 tumors [1]; after day 9, FIG. 1, n=14", "result": "< 0.05"}, {"measurement": "cytotoxicity in further study", "setting": "EMT6 tumors [1]; further study: ADR+2GdT2BET and three-step texaphyrin/ADR/texaphyrin", "result": "enhanced cytotoxicity"}, {"measurement": "chemosensitization with cyclophosphamide in vivo", "setting": "EMT6 tumors [2]", "result": "little chemosensitization occurred"}, {"measurement": "enhancement of cytotoxicity of bleomycin", "setting": "MES-SA cells [3]", "result": "seen at all concentrations of bleomycin tested and at all three concentrations of texaphyrin tested"}, {"measurement": "percent survival of the cells", "setting": "MES-SA cells [3]; with bleomycin, 50 μM, 100 μM, and 150 μM GdT2BET, 48 hr", "result": "substantially less in the presence of texaphyrin"}, {"measurement": "mechanism of action of chemosensitization", "setting": "MES-SA/Dx5 cells; MES-SA/Dx5 compared with MES-SA", "result": "P-glycoprotein-independent"}]}, {"compound": "N.N.[Cl][Pt][Cl]", "note": "[cisplatin]", "values": [{"measurement": "effectiveness in the presence of texaphyrin", "setting": "MES-SA cells [4]", "result": "effective"}, {"measurement": "effectiveness in the presence of texaphyrin", "setting": "MES-SA/Dx5 cells", "result": "effective"}]}, {"compound": "COc1cccc2c1C(=O)c1c(O)c3c(c(O)c1C2=O)C[C@@](O)(C(=O)CO)C[C@@H]3O[C@H]1C[C@H](N)[C@H](O)[C@H](C)O1", "note": "[doxorubicin]", "values": [{"measurement": "effectiveness in the presence of texaphyrin", "setting": "MES-SA cells [4]", "result": "effective"}, {"measurement": "effectiveness in the presence of texaphyrin", "setting": "MES-SA/Dx5 cells", "result": "effective"}]}, {"compound": "COc1cc([C@@H]2c3cc4c(cc3[C@@H](O[C@@H]3O[C@@H]5CO[C@@H](C)O[C@H]5[C@H](O)[C@H]3O)[C@H]3COC(=O)[C@H]23)OCO4)cc(OC)c1O", "note": "[etoposide]", "values": [{"measurement": "effectiveness in the presence of texaphyrin", "setting": "MES-SA cells [4]", "result": "effective"}, {"measurement": "IC50 difference relative to control / cytotoxicity in the presence of texaphyrin (FIG. 2)", "setting": "MES-SA cells [3]", "result": "enhanced cytotoxicity"}, {"measurement": "effectiveness in the presence of texaphyrin", "setting": "MES-SA/Dx5 cells", "result": "effective"}]}, {"compound": "CC(=O)O[C@H]1C(=O)[C@@]2(C)[C@H]([C@H](OC(=O)c3ccccc3)[C@]3(O)C[C@H](OC(=O)[C@H](O)[C@@H](NC(=O)c4ccccc4)c4ccccc4)C(C)=C1C3(C)C)[C@]1(OC(C)=O)CO[C@@H]1C[C@@H]2O", "note": "[paclitaxel]", "values": [{"measurement": "IC50 difference relative to control / cytotoxicity in the presence of texaphyrin (FIG. 2)", "setting": "MES-SA cells [3]", "result": "enhanced cytotoxicity"}]}, {"compound": "C=C[C@H]1C[N@@]2CC[C@H]1C[C@H]2[C@H](O)c1ccnc2ccc(OC)cc12", "note": "[quinine]", "values": [{"measurement": "reversal of drug resistance", "setting": "[5]", "result": "circumvented in a dose-dependent manner"}]}, {"compound": "CC/C(=C(\\c1ccccc1)c1ccc(OCCN(C)C)cc1)c1ccccc1", "note": "[tamoxifen]", "values": [{"measurement": "dose-limiting toxicities as chemosensitizer", "setting": "[6]", "result": "attributed to the inherent toxicity of the chemosensitizer and not due to enhanced chemotherapy toxicity"}]}, {"compound": "CN1CCN(CCCN2c3ccccc3Sc3ccc(C(F)(F)F)cc32)CC1", "note": "[trifluoperazine]", "values": [{"measurement": "dose-limiting toxicities as chemosensitizer", "setting": "[6]", "result": "attributed to the inherent toxicity of the chemosensitizer and not due to enhanced chemotherapy toxicity"}]}, {"compound": "COc1ccc(CCN(C)CCCC(C#N)(c2ccc(OC)c(OC)c2)C(C)C)cc1OC", "note": "(centres unmarked) [verapamil]", "values": [{"measurement": "reversal of drug resistance", "setting": "[5]", "result": "circumvented in a dose-dependent manner"}]}, {"compound": "bleomycin", "values": [{"measurement": "effectiveness in the presence of texaphyrin", "setting": "MES-SA cells [4]", "result": "effective"}, {"measurement": "effectiveness in the presence of texaphyrin", "setting": "MES-SA/Dx5 cells", "result": "effective"}]}]}
